Earlier results on one compound are cited in patent US20150297310A1, “METHODS FOR SELECTING A TREATMENT FOR CANCER” (priority 2014, published 2015).

The series deals with AB1-HA tumor. Conditions: AB1-HA tumor model, CTX treatment at Day 9.

As for `O=P1(N(CCCl)CCCl)NCCCO1` (stereo not shown) [CTX, Cyclophosphamide], the cure rate is reported as 75%.
